Source: BindingDB's records for doi:10.1016/j.bmcl.2021.127992 (Kyung Hee University, 2021)

biological target: T1, Prostaglandin E synthase (Homo sapiens, UniProt O14684); test: Inhibition of mPGES-1 in human A549 cells assessed as reduction in IL-1beta stimulated […] production
T1 sequence (O14684 whole entry): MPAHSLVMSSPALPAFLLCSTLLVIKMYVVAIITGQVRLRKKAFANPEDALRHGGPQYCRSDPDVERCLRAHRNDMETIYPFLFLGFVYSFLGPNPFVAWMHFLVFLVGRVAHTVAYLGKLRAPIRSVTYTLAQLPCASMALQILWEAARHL

| SMILES | IC50 |
| --- | --- |
| O=C(Nc1ccc(OCCCCc2ccccc2)cc1)N(Cc1ccccc1)S(=O)(=O)c1ccc(Cl)cc1 | 1 µM |
| O=C(Oc1ccc(OCc2ccccc2)cc1)N(Nc1ccccc1)S(=O)(=O)c1ccc(Cl)cc1 | 0.25 µM |
| O=C(Oc1ccc(OCc2ccccc2)cc1)N(Cc1ccccc1)S(=O)(=O)c1ccc(Cl)cc1 | 2 µM |
